In patent publication US5629430A, “Trifluoromethylpyrroloindolecarboxylic acid ester and process for production thereof” (Kyorin Pharmaceutical Co., Ltd., priority 1992, dated 1997):
In brackets after ≈: the same amount, converted by molar mass. Read-outs that look alike come from different tables or passages of the source.

Assays:
Sarcoma-180 cells = assay: Antineoplastic activity, mice having Sarcoma-180 cells transplanted subcutaneously; assay type: in vivo, mouse (female, CDR strain); details: Mus musculus, Sarcoma-180, iv, 144 h; i.v. 1.0 mg/kg single dose, tumor weighed six days after dosage; read-out: T/C (average tumor weight, dosed vs. solvent-dosed control)
Description: (§1) The test compound was dissolved in dimethylsulfoxide, and the solution was adequately diluted with 10% Emulfore EL620(produced by Rhone Poulenc Co.) to prepare the test compound solution. The antineoplastic activity was evaluated as below.
To the lateral region of a female mouse (CDR strain, 5 to 6 week age), 3.6×10^6 to 5×10^6 Sarcoma-180 cells were transplanted subcutaneously. Next day, the test medicine solution was injected into the tail vein in a single dose. Eight to twelve mice were employed for the solvent-dosed control group, and five mice were employed for the dosed group. Six days after the dosage, the tumor was cut out, and the weight thereof was measured. The antineoplastic effect was evaluated by the ratio (T/C) of the average tumor weight of the dosed group (T) to the average tumor weight of the solvent-dosed control group (C).

Colon-26 cells = assay: Antineoplastic activity, mice having Colon-26 cells transplanted subcutaneously; assay type: in vivo, mouse (female, CDF1 strain); details: Mus musculus, Colon 26, iv, 168 h, read-out: T/C (average tumor weight, dosed vs. solvent-dosed control); for response vs control in vivo at 1 mg/kg: i.v. 1.0 mg/kg single dose on sixth day
Description: as §1
To the lateral region of a female mouse (CDF1 strain, 8 to 12 week age), 1×10^6 Colon-26 cells were transplanted subcutaneously. On the sixth day after the transplantation, the test medicine solution-was injected into the tail vein in a single dose. Seven to twelve mice were employed for the solvent-dosed control group, and five mice were employed for the dosed group. One week after the dosage, the tumor was cut out, and the weight thereof was measured. The antineoplastic effect was evaluated by the ratio (T/C) of the average tumor weight of the dosed group (T) to the average tumor weight of the solvent-dosed control group (C).

[1] = tested on: P388 mouse leukemia cells; assay: Activity against tumor cell growth (P388, MTT, 72 h); assay type: cell-based; details: read-out: IC50 (50% growth inhibition concentration)
Description: Using a culture medium RPMI1640 supplemented with 10% inactivated bovine fetal serum, 2 mM glutamine, 100 μ/ml kanamycin sulfate, and 5 μM 2-hydroxyethyldisulfide (This culture medium is hereinafter referred to simply as "culture medium"), P388 mouse leukemia cells were diluted to a concentration of 1.5×10^5 cells/ml in the culture medium, and were placed in each well of 96-well multiplate in 60 μl portions. Separately, the test compound was dissolved in dimethylsulfoxide and was adequately diluted with the culture medium. The diluted solution containing test compound was added to the wells of the above plate respectively in 60 μl portions. Then the cells were incubated in a CO2 -incubator (5% CO2, 37° C.) for 72 hours.
The surviving cell numbers were measured according to the Mosmann's method (J. Immunol. Meth., 65 55-63, 1983) as follows. A 2.5 mg/ml solution of MTT (3-[4,5-dimethylthiazol-2-yl]-2,5-diphenyltetrazolium bromide) in Dulbecco's phosphate buffer solution (PBS) was prepared and added to each of the wells by 20 μl. The cells were further incubated for 3 hours. A 150 μl portion of 0.04N hydrochloric acid-isopropanol solution was added to each of the wells, and MTT-formazane formed was allowed to dissolve by pipetting. The absorbance of the solutions was measured at 540 nm taking the no-cell-containing [solution as the background. The 50% growth inhibition concentration (ICs50) was calculated from ratio of the absorbances of the treated samples to the absorbance of the no-medicine-treated sample, and from the concentration of the test compound.

[2] = tumor weighed one week after dosage
[3] = P388 mouse leukemia cells, 72 h, 37° C., MTT
[4] = i.v. 0.5 mg/kg single dose on sixth day, tumor weighed one week after dosage

SMILES: COC(=O)c1c(C(F)(F)F)[nH]c2c(O)cc3c(c12)C(CCl)CN3C(=O)c1cc2cc(-c3cc4ccccc4o3)ccc2[nH]1 (centres unmarked) [Example 12]
- response vs control in vivo at 1 mg/kg (Sarcoma-180 cells): 11%
- response vs control in vivo at 1 mg/kg (Colon-26 cells; [2]): 16%

SMILES: COC(=O)c1c(C(F)(F)F)[nH]c2c(O)cc3c(c12)[C@H](CCl)CN3C(=O)c1cc2cc(NC(=O)c3cc4cccc(OC)c4o3)ccc2[nH]1 [Example 63, Methyl (1S)-1-chloromethyl-5-hydroxy-3-[5-[(7-methoxybenzofuran-2-ylcarbonyl)amino]-1H-indol-2-ylcarbonyl]-7-trifluoromethyl-1,2,3,6-tetrahydropyrrolo[3,2-e]indole-8-carboxylate]
- IC50 [1, 3]: 0.55 ng/mL (≈ 0.808 nM)
- response vs control in vivo at 0.5 mg/kg (Colon-26 cells; [4]): 4%

SMILES: COC(=O)c1c(C(F)(F)F)[nH]c2c(O)cc3c(c12)[C@H](CCl)CN3C(=O)c1cc2cc(NC(=O)c3cc4c(OC)cccc4o3)ccc2[nH]1 [Example 75, Methyl (1S)-1-chloromethyl-5-hydroxy-3-[5-(4-methoxybenzofuran-2-ylcarbonyl)amino-1H-indol-2-ylcarbonyl]-7-trifluoromethyl-1,2,3,6-tetrahydropyrrolo[3,2-e]indole-8-carboxylate]
- IC50 [1, 3]: 0.74 ng/mL (≈ 1.09 nM)
- response vs control in vivo at 0.5 mg/kg (Colon-26 cells; [4]): 17%

SMILES: COC(=O)c1c(C(F)(F)F)[nH]c2c(O)cc3c(c12)[C@H](CCl)CN3C(=O)c1cc2cc(NC(=O)c3cc4cc(OC)ccc4o3)ccc2[nH]1 [Example 76, Methyl (1S)-1-chloromethyl-5-hydroxy-3-[5-(5-methoxybenzofuran-2-ylcarbonyl)amino-1H-indol-2-ylcarbonyl]-7-trifluoromethyl-1,2,3,6-tetrahydropyrrolo[3,2-e]indole-8-carboxylate]
- IC50 [1, 3]: 0.2 ng/mL (≈ 0.294 nM)
- response vs control in vivo at 0.5 mg/kg (Colon-26 cells; [4]): 6%

SMILES: COC(=O)c1c(C(F)(F)F)[nH]c2c(O)cc3c(c12)[C@H](CCl)CN3C(=O)c1cc2cc(NC(=O)c3cc4ccc(OC)cc4o3)ccc2[nH]1 [Example 77, Methyl (1S)-1-chloromethyl-5-hydroxy-3-[5-(6-methoxybenzofuran-2-ylcarbonyl)amino-1H-indol-2-ylcarbonyl]-7-trifluoromethyl-1,2,3,6-tetrahydropyrrolo[3,2-e]indole-8-carboxylate]
- IC50 [1, 3]: 0.23 ng/mL (≈ 0.338 nM)
- response vs control in vivo at 0.5 mg/kg (Colon-26 cells; [4]): 6%

SMILES: COC(=O)c1c(C(F)(F)F)[nH]c2c(O)cc3c(c12)[C@H](CCl)CN3C(=O)c1cc2cc(NC(=O)c3cc4cc(OC)c(OC)c(OC)c4o3)ccc2[nH]1 [Example 78, Methyl (1S)-1-chloromethyl-5-hydroxy.-7trifluoromethyl-3-[5-(5,6,7-trimethoxybenzofuran-2-ylcarbonyl)amino-1H-indol-2-ylcarbonyl]-1,2,3,6-tetrahydropyrrolo[3,2-e]indole-8-carboxylate]
- IC50 [1, 3]: 0.33 ng/mL (≈ 0.445 nM)
- response vs control in vivo at 0.125 mg/kg (Colon-26 cells; i.v. 0.125 mg/kg single dose on sixth day, tumor weighed one week after dosage): 26%

SMILES: CCN(CC)c1ccc2cc(C(=O)Nc3ccc4[nH]c(C(=O)N5C[C@@H](CCl)c6c5cc(O)c5[nH]c(C(F)(F)F)c(C(=O)OC)c65)cc4c3)oc2c1 [Example 79, Methyl (1S)-1-chloromethyl-3-[5-(6-diethylaminobenzofuran-2-ylcarbonyl)amino-1H-indol-2-ylcarbonyl]-5-hydroxy-7-trifluoromethyl-1,2,3,6tetrahydropyrrolo[3,2-e]indole-8-carboxylate]
- IC50 [1, 3]: 2.1 ng/mL (≈ 2.91 nM)
- response vs control in vivo at 0.5 mg/kg (Colon-26 cells; [4]): 9%

SMILES: COC(=O)c1c(C(F)(F)F)[nH]c2c1[C@@]13C[C@@H]1CN(C(=O)c1cc4cccc(OC)c4o1)C3=CC2=O [Example 86, Methyl (7bR, 8aS)-2-(7-methoxybenzofuran-2-ylcarbonyl)-6-trifluoromethyl-1,2,8,8a-tetrahydrocyclopropa[c]pyrrolo[3,2-e]indol-4 (5H)-one-7-carboxylate]
- IC50 [1, 3]: 1.1 ng/mL (≈ 2.26 nM)
- response vs control in vivo at 0.5 mg/kg (Colon-26 cells; [4]): 40%

SMILES: COC(=O)c1c(C(F)(F)F)[nH]c2c1[C@@]13C[C@@H]1CN(C(=O)/C=C/c1ccc(OC)cc1)C3=CC2=O [Example 90, Methyl (7bR, 8aS)-2-[2-(4-methoxyphenyl)ethylene-1-ylcarbonyl)-6-trifluoromethyl-1,2,8,8a-tetrahydrocyclopropa[c]pyrrolo[3,2-e]indol-4 (5H)-one-7-carboxylate]
- IC50 [1, 3]: 0.9 ng/mL (≈ 1.91 nM)
- response vs control in vivo at 1 mg/kg (Colon-26 cells; [2]): 31%

SMILES: COC(=O)c1c(C(F)(F)F)[nH]c2c(OC(=O)N3CCN(C)CC3)cc3c(c12)[C@H](CCl)CN3C(=O)c1cc2cc(NC(=O)c3cc4c(OC)c(OC)c(OC)cc4cn3)ccc2[nH]1 [Example 97]
- IC50 ([1]; Mus musculus, P388, 72 h): 5.8 ng/mL (≈ 6.6 nM)
- response vs control in vivo at 0.5 mg/kg (Colon-26 cells): 11%

SMILES: COC(=O)c1c(C(F)(F)F)[nH]c2c(OC(=O)N3CCN(C)CC3)cc3c(c12)[C@H](CCl)CN3C(=O)c1cc2cc(NC(=O)c3cc4c(cn3)[nH]c3ccccc34)ccc2[nH]1 [Example 98, Methyl (1S)-1-chloromethyl-5-(4-methylpiperazin-1-ylcarbonyl)oxy-3-[5-[(9H-pyrido[3,4-b]indol-3-ylcarbonyl)amino]-1H-indol-2-ylcarbonyl]-7-trifluoromethyl-1,2,3,6-tetrahydropyrrolo[3,2-e]indole-8-carboxylate]
- IC50 ([1]; Mus musculus, P388, 72 h): 5.7 ng/mL (≈ 6.89 nM)
- response vs control in vivo at 0.5 mg/kg (Colon-26 cells): 29%

SMILES: COC(=O)c1c(C(F)(F)F)[nH]c2c(OC(=O)N3CCN(C)CC3)cc3c(c12)[C@H](CCl)CN3C(=O)c1cc2cc(NC(=O)c3cc4cccc(OC)c4o3)ccc2[nH]1 [Example 99, Methyl (1S)-1-chloromethyl-3-[5[(7-methoxybenzofuran-2-ylcarbonyl)amino]-1H-indol-2-ylcarbonyl]-5-(4-methylpiperazin-1-ylcarbonyl)oxy-7-trifluoromethyl-1,2,3,6-tetrahydropyrrolo[3,2-e]indole-8-carboxylate]
- response vs control in vivo at 2 mg/kg (Colon-26 cells): 5%

SMILES: COC(=O)c1c(C(F)(F)F)[nH]c2c(OC(=O)N3CCN(C)CC3)cc3c(c12)[C@H](CCl)CN3C(=O)c1cc2cc(NC(=O)c3cc4ccccc4cn3)ccc2[nH]1 [Example 107, Methyl (1S)-1-chloromethyl-3-[5-[(isoquinolin-3-ylcarbonyl)amino]-1H-indol-2-ylcarbonyl]-5-(4-methylpiperazin-1-ylcarbonyl)oxy-7-trifluoromethyl-1,2,3,6-tetrahydropyrrolo[3,2-e]indole-8-carboxylate]
- IC50 ([1]; Mus musculus, P388, 72 h): 4.6 ng/mL (≈ 5.84 nM)
- response vs control in vivo at 0.5 mg/kg (Colon-26 cells): 7%

SMILES: COC(=O)c1c(C(F)(F)F)[nH]c2c(O)cc3c(c12)[C@H](CCl)CN3C(=O)c1cc2cc(NC(=O)Nc3ccc4[nH]c(C(=O)N5C[C@@H](CCl)c6c5cc(O)c5[nH]c(C(F)(F)F)c(C(=O)OC)c65)cc4c3)ccc2[nH]1 [Example 108, (S,S)-3-3'-[Carbonylbis(imino-1H-indol-5,2-dicarbonyl)]bis-[1-chloromethyl-5-hydroxy-7-trifluoromethyl-1,2,3,6-tetrahydropyrrolo[3,2-e]indole-8-carboxylic acid methyl ester]]
- IC50 [1, 3]: 0.007 ng/mL (≈ 0.00673 nM)
- response vs control in vivo at 0.0156 mg/kg (Colon-26 cells; i.v. 0.0156 mg/kg single dose on sixth day, tumor weighed one week after dosage): 6%

SMILES: COC(=O)c1c(C(F)(F)F)[nH]c2c(OC(=O)N3CCN(C)CC3)cc3c(c12)[C@H](CCl)CN3C(=O)c1cc2cc(NC(=O)Nc3ccc4[nH]c(C(=O)N5C[C@@H](CCl)c6c5cc(OC(=O)N5CCN(C)CC5)c5[nH]c(C(F)(F)F)c(C(=O)OC)c65)cc4c3)ccc2[nH]1 [Example 109, (S,S)-3-3'-[Carbonylbis(imino-1H-indol-5,2-dicarbonyl)]bis-[1-chloromethyl-5-(4-methylpiperazin-1-ylcarbonyl)oxy-7-trifluoromethyl-1,2,3,6-tetrahydropyrrolo[3,2-e]indole-8-carboxylic acid methyl ester]]
- IC50 ([1]; Mus musculus, P388, 72 h): 53 ng/mL (≈ 41 nM)
- response vs control in vivo at 0.25 mg/kg (Colon-26 cells): 7%
